Experimental data from patent publication US10011573B2, “Human androgen receptor DNA-binding domain (DBD) compounds as therapeutics and methods for their use” (The University of British Columbia, priority 2014, dated 2018).
Read-outs that look alike come from different tables or passages of the source.

Columns and labels:
[1] = molecular target: T1, AR hormone binding site (recombinant wild type LBD) (Rattus norvegicus, UniProt P15207); assay: Androgen displacement assay (Polar Screen Androgen Receptor Competitor Green Assay Kit); settings: fluorescence polarization
T1 construct: displace DHT from the ABS site of recombinant wild type LBD
T1 sequence (P15207 651-882 limits assumed): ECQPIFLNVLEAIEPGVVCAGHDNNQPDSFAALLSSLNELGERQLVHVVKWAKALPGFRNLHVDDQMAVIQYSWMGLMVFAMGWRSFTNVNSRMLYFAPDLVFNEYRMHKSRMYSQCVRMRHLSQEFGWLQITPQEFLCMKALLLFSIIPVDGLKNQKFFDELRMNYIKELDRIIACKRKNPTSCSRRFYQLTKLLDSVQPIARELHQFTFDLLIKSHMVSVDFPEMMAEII
Method: 5. Androgen displacement assay: The androgen displacement was assessed with the Polar Screen Androgen Receptor Competitor Green Assay Kit as per the instructions of the manufacturer (Lack, Axerio-Cilies et al. 2011).
The ability of the above chemicals to displace DHT from the ABS site of recombinant wild type LBD was measured using a fluorescent polarization assay (PolarScreen™, Life Technologies) at various concentrations.

androgen receptor (AR) = molecular target: T2, androgen receptor (AR) (Homo sapiens, UniProt P10275, T878A); assay: eGFP cellular AR transcription assay (LNCaP eGFP cells, LN-ARR2PB-eGFP); settings: for anti-AR activity (AR transcriptional inhibition) in words: LNCaP (T877A AR); for inhibition at 3 µM: LNCaP, read-out: % Inhibition (3 μM)
T2 sequence (P10275 1-920 T878A): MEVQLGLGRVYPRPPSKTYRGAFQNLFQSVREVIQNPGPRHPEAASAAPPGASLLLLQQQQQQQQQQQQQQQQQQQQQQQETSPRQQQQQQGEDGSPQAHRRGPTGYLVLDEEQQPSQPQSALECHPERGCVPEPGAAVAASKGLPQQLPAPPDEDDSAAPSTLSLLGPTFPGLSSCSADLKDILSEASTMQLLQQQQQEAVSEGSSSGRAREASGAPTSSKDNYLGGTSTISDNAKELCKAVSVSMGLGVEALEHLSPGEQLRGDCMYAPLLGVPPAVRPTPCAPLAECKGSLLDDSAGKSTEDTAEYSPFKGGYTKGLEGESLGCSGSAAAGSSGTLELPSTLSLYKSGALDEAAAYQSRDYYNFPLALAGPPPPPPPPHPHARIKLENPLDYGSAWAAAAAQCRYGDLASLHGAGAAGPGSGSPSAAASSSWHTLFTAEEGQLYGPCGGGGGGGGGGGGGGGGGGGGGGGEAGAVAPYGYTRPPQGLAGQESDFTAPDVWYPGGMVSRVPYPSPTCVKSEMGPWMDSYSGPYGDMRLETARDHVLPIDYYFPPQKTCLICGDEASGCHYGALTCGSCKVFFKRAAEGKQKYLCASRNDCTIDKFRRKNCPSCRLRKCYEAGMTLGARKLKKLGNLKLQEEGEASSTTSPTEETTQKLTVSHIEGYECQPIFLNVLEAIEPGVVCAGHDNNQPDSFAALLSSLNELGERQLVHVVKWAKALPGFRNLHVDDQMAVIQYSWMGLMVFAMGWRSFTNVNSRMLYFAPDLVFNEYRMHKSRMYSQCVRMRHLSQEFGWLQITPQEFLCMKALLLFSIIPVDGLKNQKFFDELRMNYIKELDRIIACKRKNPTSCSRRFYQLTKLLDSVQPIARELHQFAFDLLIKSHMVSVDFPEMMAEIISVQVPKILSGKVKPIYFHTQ

AR DBD = AR DBD (Homo sapiens, UniProt P10275)
PSA = assay: Prostate-specific antigen (PSA) assay, secreted PSA from the eGFP assay plates; assay type: cell-based, human
Method: 3. Prostate-specific antigen (PSA) assay: The evaluation of PSA levels secreted into the media was performed in parallel to the eGFP assay using the same plates. After cells were incubated for 3 days, 150 μl of the media was taken from each well, and added to 150 μl of PBS.

AR target genes = assay: Microarray genetic profile in LNCaP cells; settings: 1 nM R1881, 24 h
[2] = eGFP IC50, LNCaP eGFP cells, 0.1 nM R1881
[3] = eGFP IC50 (μM), LNCaP eGFP cells

| SMILES | IC50 (androgen receptor (AR); eGFP IC50 (μM), Series 1) | IC50 (PSA; Homo sapiens, Series 1) | inhibition at 3 µM (androgen receptor (AR)) | other results |
| --- | --- | --- | --- | --- |
| c1cc(-c2csc(N3CCOCC3)n2)ccn1 [Compound 14435] | 2.61 µM | – | – | Androgen Displacement IC50 [1]: No displacement; anti-AR activity (AR transcriptional inhibition) in words (androgen receptor (AR)): maintained good potency; partial agonistic effect (androgen receptor (AR); LNCaP eGFP cells): no undesired partial agonistic effect; IC50 (androgen receptor (AR); [2]): 3.87 ± 1.26 µM |
| COc1c(Cl)cc(-c2csc(N3CCOCC3)n2)cc1Cl [Compound 14288] | – | – | – | digestion of AR DBD by trypsin in presence of compound (AR DBD): not digested; % Inhibition (3 μM) (androgen receptor (AR)): 35.89% |
| c1cc(-c2csc(N3CCOCC3)n2)cs1 [Compound 14404, 4-(4-(thiophen-3-yl)thiazol-2-yl)morpholine] | 0.26 µM | 220 nM | – | Androgen Displacement IC50 [1]: No displacement; anti-AR activity (AR transcriptional inhibition) in words (androgen receptor (AR)): maintained good potency; partial agonistic effect (androgen receptor (AR); LNCaP eGFP cells): no undesired partial agonistic effect; IC50 (androgen receptor (AR); [2]): 0.27 ± 0.02 µM |
| Clc1ccc(-c2csc(N3CCOCC3)n2)cc1Cl [Compound 14266] | – | – | – | % Inhibition (3 μM) (androgen receptor (AR)): 82.19%; IC50 (androgen receptor (AR); read-out: eGFP IC50): 3.31 µM; IC50 (PSA; Series 1): 2960 nM |
| Clc1ncn(-c2csc(N3CCOCC3)n2)c1Br [Compound 14451, 4-(4-(5-bromo-4-chloro-1H-imidazol-1-yl)thiazol-2-yl)morpholine] | 0.33 µM | 440 nM | – | – |
| c1ccc(-c2ccc3ccccc3n2)cc1 [Compound 14390] | – | – | 80.2% | IC50 (androgen receptor (AR); [3]): 2.6 µM; IC50 (PSA; Homo sapiens, secreted PSA): 1230 nM |
| Nc1ccccc1-c1nc(-c2cccnc2)cs1 [Compound 14463] | 2.3 µM | 2120 nM | – | – |
| Clc1cn(-c2csc(N3CCOCC3)n2)cn1 [Compound 14448, 4-(4-(4-chloro-1H-imidazol-1-yl)thiazol-2-yl)morpholine] | 0.96 µM | 720 nM | – | – |
| Cc1ccc2sc(N3CCOCC3)nc2c1C [Compound 14332] | – | – | 91.7% | IC50 (androgen receptor (AR); [3]): 0.068 µM; IC50 (PSA; Homo sapiens, secreted PSA): 58 nM |
| c1cncc(-c2csc(N3CCOCC3)n2)c1 [Compound 14439] | – | – | 81% | Androgen Displacement IC50 [1]: low displacement; anti-AR activity (AR transcriptional inhibition) in words (androgen receptor (AR)): maintained good potency; partial agonistic effect (androgen receptor (AR); LNCaP eGFP cells): no undesired partial agonistic effect; IC50 (androgen receptor (AR); [2]): 0.16 ± 0.03 µM |
| Fc1ccc2sc(N3CCOCC3)nc2c1F [Compound 14409] | – | – | 86% | IC50 (androgen receptor (AR); [3]): 0.36 µM; IC50 (PSA; Homo sapiens, secreted PSA): 340 nM |
| c1ccc(-c2csc(-c3ccccn3)n2)cc1 [Compound 14130] | – | – | – | IC50 (androgen receptor (AR); read-out: eGFP IC50): 7.4 µM; IC50 (PSA; Series 1): 8540 nM |
| Fc1ccc(-c2csc(N3CCOCC3)n2)cc1F [Compound 14264] | 0.24 µM | 110 nM | 115% | – |
| c1ccc(-c2csc(N3CCOCC3)n2)nc1 [Compound 14436] | 2.51 µM | – | – | Androgen Displacement IC50 [1]: No displacement; anti-AR activity (AR transcriptional inhibition) in words (androgen receptor (AR)): maintained good potency; partial agonistic effect (androgen receptor (AR); LNCaP eGFP cells): no undesired partial agonistic effect; IC50 (androgen receptor (AR); [2]): 4.53 ± 0.26 µM |
| Brc1cn(-c2csc(N3CCOCC3)n2)cn1 [Compound 14447, 4-(4-(4-bromo-1H-imidazol-1-yl)thiazol-2-yl)morpholine] | 2.1 µM | 1740 nM | – | – |
| c1cc(-c2csc(N3CCCCC3)n2)cs1 [Compound 14131] | 0.82 µM | 540 nM | 117% | – |

| SMILES | IC50 (androgen receptor (AR); eGFP IC50 (μM), Series 1) | IC50 (PSA; Homo sapiens, Series 1) | inhibition at 3 µM (androgen receptor (AR)) | other results |
| --- | --- | --- | --- | --- |
| Fc1ccc(-c2csc(N3CCOCC3)n2)cc1 [Compound 14255] | 0.66 µM | 410 nM | 44.9% | – |
| Clc1ncn(-c2csc(N3CCOCC3)n2)c1I [Compound 14468, 4-(4-(4-chloro-5-iodo-1H-imidazol-1-yl)thiazol-2-yl)morpholine] | 2.44 µM | 4020 nM | – | – |
| COc1c(-c2csc(N3CCOCC3)n2)ccc(F)c1F [Compound 14370] | 0.19 µM | 250 nM | 107% | anti-AR activity (AR transcriptional inhibition) in words (androgen receptor (AR)): improved activities |
| COc1ccccc1-c1csc(N2CCOCC2)n1 [Compound 14257] | 0.22 µM | 830 nM | 118% | – |
| O=[N+]([O-])c1cccc2ccc(N3CCOCC3)nc12 [Compound 14398] | – | – | – | IC50 (androgen receptor (AR); [3]): 0.82 µM; IC50 (PSA; Homo sapiens, secreted PSA): 850 nM |
| Cc1ccc(C)c(-c2csc(N3CCOCC3)n2)c1 [Compound 14293] | 0.62 µM | 520 nM | – | – |
| FC(F)(F)C1CN(c2nc(-c3ccccc3)cs2)CCO1 (centres unmarked) [Compound 14250] | – | – | – | IC50 (androgen receptor (AR); read-out: eGFP IC50): 1.64 µM; IC50 (PSA; Series 1): 160 nM |
| c1csc(-c2nc(-c3c[nH]c4ccccc34)cs2)c1 [Compound 14481] | 2.18 µM | 1410 nM | 80.5% | – |
| Nc1ccccc1-c1csc(N2CCOCC2)n1 [Compound 14273] | 1.41 µM | 2030 nM | 73.4% | – |
| N#Cc1ccc(-c2ccc(N3CCOCC3)s2)cc1 [Compound 14117] | 1.43 µM | 885 nM | 111% | – |
| c1ccc2c(-c3csc(-c4c[nH]c5ccccc45)n3)c[nH]c2c1 [Compound 14471] | 1.02 µM | 1410 nM | – | – |
| c1ccc(-c2csc(N3CCCCC3)n2)cc1 [Compound 14233] | 1.02 µM | 690 nM | – | – |
| c1cncc(-c2csc(-c3c[nH]c4ccccc34)n2)c1 [Compound 14442] | 5.39 µM | 3050 nM | 86.3% | – |
| c1ccc2c(-c3nc(-c4ccncc4)cs3)c[nH]c2c1 [Compound 14150] | 1.44 µM | 1290 nM | 133% | – |
| C[C@]1(O)CC[C@H]2[C@@H]3CCC4=CC(=O)CCC4=C3C=C[C@@]21C [Compound R1881, R1881, reference compound] | – | – | – | FKBP5 gene expression fold change, DMSO+R1881 against DMSO-R1881 (AR target genes): 1.61; KLK2 gene expression fold change, DMSO+R1881 against DMSO-R1881 (AR target genes): 3.60; KLK3 (PSA) gene expression fold change, DMSO+R1881 against DMSO-R1881 (AR target genes): 2.42; TMPRSS2 gene expression fold change, DMSO+R1881 against DMSO-R1881 (AR target genes): 2.25 |
